# Laboratory results reported in patent publication US20250346643A1, “TROPOMYOSIN KINASE RECEPTOR (TRK) LIGANDS AS THERAPEUTICS TO SUPPORT LIVER REGENERATION” (Vanderbilt University, priority 2024, published 2025).
# How the values were obtained:
# [1] = biological target: TRKB (tropomyosin receptor kinase B, encoded by Ntrk2) on primary mouse hepatocytes (mouse) (UniProt P15209); experiment: cell-based or functional assay
# [2] = biological target: T1, TrkB (Homo sapiens, UniProt Q16620); details: read-out: Kd (agonist of TrkB); cited from earlier work
# T1 sequence (Q16620 32-822, species assumed): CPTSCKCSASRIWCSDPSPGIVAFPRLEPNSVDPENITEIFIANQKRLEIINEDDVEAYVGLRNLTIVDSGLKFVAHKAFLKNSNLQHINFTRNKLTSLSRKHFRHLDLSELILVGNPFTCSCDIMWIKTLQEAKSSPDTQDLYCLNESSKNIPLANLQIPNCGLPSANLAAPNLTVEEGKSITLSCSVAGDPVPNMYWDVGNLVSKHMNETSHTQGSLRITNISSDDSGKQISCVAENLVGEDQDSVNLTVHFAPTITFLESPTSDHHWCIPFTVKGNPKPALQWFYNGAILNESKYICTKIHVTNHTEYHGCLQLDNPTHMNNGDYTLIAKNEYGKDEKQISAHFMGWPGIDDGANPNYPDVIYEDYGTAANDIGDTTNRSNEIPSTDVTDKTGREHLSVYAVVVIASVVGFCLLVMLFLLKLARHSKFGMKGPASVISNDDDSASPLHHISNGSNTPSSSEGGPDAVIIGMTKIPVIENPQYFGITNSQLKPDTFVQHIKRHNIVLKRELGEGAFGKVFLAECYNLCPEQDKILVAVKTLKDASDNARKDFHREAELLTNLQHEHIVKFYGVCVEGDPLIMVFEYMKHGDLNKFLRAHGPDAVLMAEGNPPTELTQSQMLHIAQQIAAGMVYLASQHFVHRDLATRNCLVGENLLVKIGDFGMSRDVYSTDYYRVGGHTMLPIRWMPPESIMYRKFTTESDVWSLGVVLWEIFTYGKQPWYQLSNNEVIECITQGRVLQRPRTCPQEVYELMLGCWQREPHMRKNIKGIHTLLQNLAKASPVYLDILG
# [3] = in vivo, cited from earlier work
# [4] = tested on: proliferating HSCs; details: Gfap-Tk mice, carbon tetrachloride and allyl alcohol for 10 days, co-administration of ganciclovir; cited from earlier work
# [5] = tested on: mTORC1; experiment: Immunoblotting of HDOs for P-S6RP and P-P70S6K (mTORC1 activation); assay type: cell-based, human
# Description: Human ductal organoids. The normal human liver tissue was obtained through the Cooperative Human Tissue Network (CHTN) at Vanderbilt University Medical Center. The liver was cut into very small pieces in liver digestion medium (Gibco, Waltham, MA; 17703-034). The cell suspension was filtered through a 100-μm cell strainer. The flow through was then centrifuged for 2 min at 100 g, 4° C., and the cell pellet resuspended in ice-cold DMEM (Gibco, Waltham, MA; 11885-084, supplemented by 5% FBS) and centrifuged for 2 min at 300 g. The cell pellet was gently resuspended in Matrigel® (Corning, Corning, NY; 356231) and a […] dome plated in a 24-well plate. The plate was incubated for 10-15 min at 37° C. After solidifying, complete HepatiCult™ Organoid Initiation Medium (OIM) (STEMCELL Technologies, Vancouver, Canada; 100-0384) was added. For passaging, the Matrigel dome was dissociated using TrypLE (Thermo Fisher Scientific, Waltham, MA; 12604013) and incubated at 37° C. for 5 mins. Organoids were washed by resuspending in advanced DMEM/F12 and consecutive resuspension of the organoid pellet. Organoids were resuspended at a 1:10 dilution in Matrigel® and cultured in complete HepatiCult™ Organoid Growth Medium (OGM) (STEMCELL Technologies, Vancouver, Canada; 100-0385) for organoid expansion. For hepatocytic differentiation of hepatic ductal organoids, culture medium was changed to complete HepatiCult™ Organoid Differentiation Medium (ODM) (STEMCELL Technologies, 100-0383) 4 days after passaging. Vehicle, NTF3, BDNF, HGF (20 ng/ml final concentration) or Taletrectinib (Fisher Scientific, Waltham, MA; 502030245, final concentration 10 nM) or torin2 (Fisher Scientific, Waltham, MA; s2817, final concentration 25 nM) were diluted in William's E (without L-glutamine) and added to organoids.
# Immunoblotting. HDOs and mpPHH were homogenized in RIPA buffer containing proteinase inhibitors (Roche, Basel, Switzerland; cOmplete™ Mini protease inhibitor, 2 tab/10 ml buffer) and 1×HALT phosphatase inhibitors (Thermo Fisher Scientific, Waltham, MA; catalog no. 78428). Lysates were sonicated and then centrifuged for 10 min at 18,800 g. Protein concentration of supernatants was determined by Direct Detect Spectrophotometer (MilliporeSigma, Burlington, MA). HDOs were treated with growth factors as described above. Lyophilized NTF3 was solubilized with sterile-filtered PBS supplemented with 0.1% BSA, aliquoted, and stored at −80° C. until use. […] HDOs and mpPHH were collected on ice in PBS and centrifuged for 10 s, and the cell pellet was homogenized in RIPA buffer containing inhibitors (Roche, Basel, Switzerland; cOmplete™ Mini protease inhibitor, 1×HALT phosphatase inhibitors, Thermo Fisher Scientific, Waltham, MA; catalog no. 78428). Cell lysates were sonicated and centrifuged for 10 min at 18,800 g. The protein concentration of supernatants was determined by a Direct Detect® spectrophotometer (MilliporeSigma, Burlington, MA). For immunoblot analysis, 10 to 50 μg of protein diluted in […] sample buffer (Invitrogen, Waltham, MA) were analyzed per SDS-polyacrylamide gel electrophoresis (NuPAGE™, Invitrogen, Waltham, MA) using Mops buffer or MES buffer (Invitrogen, Waltham, MA). […] Semi-quantitative band densitometry was performed using ImageJ software (version 1.53).
# [6] = tested on: mTOR; experiment: Immunoblotting of mpPHH for P-S6RP and P-P70S6K (mTOR activation); assay type: cell-based, human; details: co-incubation with Torin2
# Description: (§1) Mouse passaged primary human hepatocytes. Mouse-passaged primary human hepatocytes (mpPHHs) were collected as previously described (Michailidis et al., Proc Natl Acad Sci USA. 2020; 117(3): 1678-1688) and cultured in hepatocyte culture media (CC-3198, Lonza, Basel, Switzerland) in collagen-coated chamber slides. Three days before treatment, mpPHH were incubated in William's E media (with L-glutamine). […] 5-15 images per treatment per experiment were randomly taken and EdU positive nuclei quantified.
# (§2) Immunoblotting. […] Protein concentration of supernatants was determined by Direct Detect Spectrophotometer (MilliporeSigma, Burlington, MA). […] The protein concentration of supernatants was determined by a Direct Detect® spectrophotometer (MilliporeSigma, Burlington, MA). For immunoblot analysis, 10 to 50 μg of protein diluted in […] sample buffer (Invitrogen, Waltham, MA) were analyzed per SDS-polyacrylamide gel electrophoresis (NuPAGE™, Invitrogen, Waltham, MA) using Mops buffer or MES buffer (Invitrogen, Waltham, MA). […] Semi-quantitative band densitometry was performed using ImageJ software (version 1.53).
# [7] = tested on: CCND1 and PCNA; experiment: Immunoblotting of HDOs for CCND1 and PCNA; assay type: cell-based, human; details: co-incubation with torin2
# Description: Human ductal organoids. The normal human liver tissue was obtained through the Cooperative Human Tissue Network (CHTN) at Vanderbilt University Medical Center. The liver was cut into very small pieces in liver digestion medium (Gibco, Waltham, MA; 17703-034). The cell suspension was filtered through a 100-μm cell strainer. The flow through was then centrifuged for 2 min at 100 g, 4° C., and the cell pellet resuspended in ice-cold DMEM (Gibco, Waltham, MA; 11885-084, supplemented by 5% FBS) and centrifuged for 2 min at 300 g. The cell pellet was gently resuspended in Matrigel® (Corning, Corning, NY; 356231) and a […] dome plated in a 24-well plate. The plate was incubated for 10-15 min at 37° C. […]
# as §2
# [8] = tested on: CCND1 and PCNA; experiment: Immunoblotting of mpPHH for CCND1 and PCNA; assay type: cell-based, human; details: mpPHHs, co-incubation with torin2
# Description: as §1, §2
# [9] = biological target: T1, TrkB; details: cited from earlier work
# [10] = biological target: T1, TrkB; details: read-out: IC50 for inhibition of BDNF binding to TrkB; cited from earlier work
# TRKB (tropomyosin receptor kinase B, encoded by Ntrk2) on primary mouse hepatocytes (mouse), sequence (P15209 32-821): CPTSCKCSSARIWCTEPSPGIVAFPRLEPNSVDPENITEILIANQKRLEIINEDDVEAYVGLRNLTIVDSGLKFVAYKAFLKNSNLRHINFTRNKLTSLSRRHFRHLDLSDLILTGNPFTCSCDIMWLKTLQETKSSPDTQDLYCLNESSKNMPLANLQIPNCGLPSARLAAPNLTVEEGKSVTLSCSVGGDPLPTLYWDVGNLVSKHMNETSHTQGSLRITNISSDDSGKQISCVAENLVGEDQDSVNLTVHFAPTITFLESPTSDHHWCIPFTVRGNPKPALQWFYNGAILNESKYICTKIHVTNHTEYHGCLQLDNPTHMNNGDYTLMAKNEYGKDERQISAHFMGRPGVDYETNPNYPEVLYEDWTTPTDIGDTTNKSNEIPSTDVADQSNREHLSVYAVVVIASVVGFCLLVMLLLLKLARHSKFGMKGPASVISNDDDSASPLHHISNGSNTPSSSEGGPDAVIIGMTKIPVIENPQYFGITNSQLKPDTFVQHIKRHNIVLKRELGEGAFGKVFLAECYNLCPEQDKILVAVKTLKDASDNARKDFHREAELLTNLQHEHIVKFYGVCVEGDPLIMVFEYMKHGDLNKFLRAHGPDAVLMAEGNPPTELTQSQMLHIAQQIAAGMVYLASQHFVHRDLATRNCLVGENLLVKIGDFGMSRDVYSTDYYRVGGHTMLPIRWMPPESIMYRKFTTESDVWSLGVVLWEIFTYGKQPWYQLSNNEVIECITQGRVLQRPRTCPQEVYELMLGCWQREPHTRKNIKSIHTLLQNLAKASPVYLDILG
compound,measurement,setting,value
recombinant neurotrophin-3 (NTF3) (from UniProt P20783 139-257) (ligand),"proliferation of primary mouse hepatocytes (CellTiter-Glo), NTF3 20 ng/ml against vehicle",[1],1.5 fold
"O=c1cc(-c2ccccc2)oc2c(O)c(O)ccc12 [7,8-DHF, 7,8-dihydroxyflavone]",Kd,[2],~0.32 µM
same,oral bioavailability,[3]; po,orally bioavailable
same,blood-brain barrier penetration,[3],able to penetrate the blood-brain barrier
Nc1nc(O)c2ncn(COC(CO)CO)c2n1 [ganciclovir],depletion rate of proliferating HSCs,[4],approximately 65%
"Nc1ccc(-c2ccc3ncc4ccc(=O)n(-c5cccc(C(F)(F)F)c5)c4c3c2)cn1 [Torin2, reference compound]",effect on NTF3- or insulin-induced phosphorylation of p70S6 kinase and S6RP,"[5]; HDO, co-incubation with Torin2 25 nM",decreased
same,phosphorylated S6rp (Ser240/244),"[5]; HDOs cultured in glutamine free media, coincubation (FIG. 18G), Torin2 25 nM",decreased phosphorylated S6rp
same,effect on NTF3-induced P-S6RP and P-P70S6K,[6],inhibited
same,effect on NTF3-induced CCND1 and PCNA,[7],inhibited
same,effect on NTF3-induced CCND1 and PCNA,[8],inhibited
O=C(NCCO)c1cc(C(=O)NCCO)cc(C(=O)NCCO)c1 [LM22A-4],intrinsic activity (IA),[9]; partial agonist of TrkB,about 85%
same,EC50,[9]; read-out: EC50 for TrkB activation,0.0002 to 0.0005 µM
same,IC50,[10],0.047 µM
